We go through two compounds from patent US20110184018A1, “METHOD FOR TREATING PERIPHERAL NEUROPATHIC PAIN” (LOHOCLA RESEARCH CORPORATION, priority 2005, published 2011).

The nature of data set [1]: Plasma and brain levels after oral administration of DCUK-OEt. Type of data set: in vivo. To be noted: rat, 200 mg/kg DCUK-OEt emulsion by oral gavage. Here is the method: Oral administration has been the major route of drug administration for the treatment of many diseases. […] Groups of rats were administered 200 mg/kg DCUK-OEt prepared as an emulsion in gelatin:canola oil (50:50) by oral gavage and sacrificed at 0.25, 0.5, 1, 1.5, 2, 4, 6, and 8 hours following administration, in order to collect the blood and brains for analysis. Plasma and brain levels of DCUKA and DCUK-OEt were analyzed by liquid chromatographic separation and mass spectrometric detection. Orally administered DCUK-OEt was converted to DCUKA by plasma and brain carboxylesterases. Peak levels of plasma DCUK-OEt were reached by about 1 hour post-administration, and fell to low levels by about 2 hours. DCUKA plasma levels peaked at about 2 hours and then fell off slowly over the next 4 hours. Brain DCUK-OEt levels peak at about 1 hour post-administration.
Oral administration. Following overnight food deprivation, groups of 3 rats were administered 200 mg/kg DCUK-OEt by oral gavage (40 mg/mL DCUK-OEt at 5 mL/kg body weight). Groups of rats were anesthetized and sacrificed by decapitation at 0.25, 0.5, 1, 1.5, 2, 4, 6, and 8 hours post-administration. Trunk blood was collected into tubes containing K2EDTA anticoagulant and brains were removed, washed thoroughly with 0.9% NaCl, and frozen on dry ice. Blood samples were centrifuged at 4000 rpm for 10 minutes. Plasma supernatant was removed and frozen at −80° C. until the time of the assay.
Liquid chromatographic-mass spectrometric determination of plasma and brain DCUKA and DCUK-OEt levels. Rat plasma sample preparation involved a simple protein precipitation procedure (100 μL plasma+250 μL acetonitrile containing 25 ng/mL of the internal standard, DCUK-OMe). After vortexing (5 minutes) and centrifugation (5000 g, 5 minutes, +4° C.), 200 μL of the supernatant was injected into the HPLC system and loaded onto the extraction column. Frozen brain tissue samples (about 0.5 g) were homogenized over liquid nitrogen using a mortar and pestle. The homogenized powder was transferred into the tubes containing 1.5 mL ice-cold 100% acetonitrile and 25 ng/mL DCUK-OMe (used as an internal standard). Following procedures were all performed on ice or at 4° C. The samples were further homogenized using an electric homogenizer for 30 seconds at 4° C. Subsequently, the tubes were placed into the ultrasonic bath for 30 minutes (on ice), and centrifuged afterwards at 1300 g for 10 minutes at 4° C. The supernatant was transferred into the HPLC tube. The pellet was re-extracted with 500 μL MeOH (containing 25 ng/mL DCUK-OMe), sonicated for 10 minutes, and centrifuged (10 minutes at 1300 g, 4° C.). The MeOH phase was combined with the acetonitrile solution from the first extraction step and 500 μL of the solution was directly injected into the HPLC system.
The two HPLC systems consisted of the following components (all series 1100, Agilent Technologies, Palo Alto, USA): HPLC I: G1312A binary pump, G1379A degasser; HPLC II: G1312A binary pump, and a G1316A column thermostat. A Sciex API 4000 triple-stage quadrupole mass spectrometer was used as detector (Applied Biosystems, Foster City, USA). The HPLC systems were connected via a 6-port column switching valve mounted on a step motor. The HPLC's switching valve and the mass spectrometer were controlled by the Analyst software (version 1.3.1., Applied Biosystems). […]

In data set [2] the target is T1, cannabinoid receptor 1 (CB1) (Homo sapiens, UniProt P21554).
T1 construct: expressed in transfected cells; host or cells: HEK293 cells
The data set can be described thus: Displacement of [3H]CP55940 from CB1 receptors expressed in HEK293 cells. The data set is classed as binding. To be noted: [3H]CP55940 displacement, Cheng-Prusoff. From the text:
The cannabinoid receptor 1 (CB1) is a G-protein coupled receptor (GPCR), which can modulate the enzymatic activity of adenylyl cyclase (AC), inhibit calcium influx into neurons and increase neuronal potassium permeability. The CB1 receptors have been reported to be intimately involved in the progression and control of chronic pain. The CB1 receptors reportedly are involved in both the amelioration of anxiety and depression and may also be important in cognitive function and eating behavior. The interaction of a chemical entity with a CB1 receptor can be measured by the binding of selective radioligands to the native receptor or a CB1 receptor expressed in model cell systems. To ascertain the extent to which a non-radioactive ligand binds to a CB1 receptor the displacement of the radioactive CB1 selective ligand with DCUK-OEt was performed. The methods of assay and calculations for binding constants can be accessed, for example, on the PDSP website (pdsp(dot)med(dot)unc(dot)edu/indexR(dot)html). For binding of DCUK-OEt to the CB1 receptor, the displacement of the CB1 selective radioligand [^3H] CP55940 from CB1 receptors expressed in HEK293 cells was monitored. The log IC50 was determined from the displacement data, and the Ki values for DCUKA and DCUK-OEt were calculated using the Cheng-Prusoff equation.
(In general: In a radioligand displacement assay an active substance lowers the binding of a labelled ligand.)

As usually defined, the pKi is −log10 of the Ki, conventionally taken in molar units. A higher pKi goes with a small Ki.

Each structure is given as a SMILES string. pKi: −log10 of the molar value. Where only a bound is given, the exact number is not on record here.

T1 sequence (P21554 whole entry, species assumed): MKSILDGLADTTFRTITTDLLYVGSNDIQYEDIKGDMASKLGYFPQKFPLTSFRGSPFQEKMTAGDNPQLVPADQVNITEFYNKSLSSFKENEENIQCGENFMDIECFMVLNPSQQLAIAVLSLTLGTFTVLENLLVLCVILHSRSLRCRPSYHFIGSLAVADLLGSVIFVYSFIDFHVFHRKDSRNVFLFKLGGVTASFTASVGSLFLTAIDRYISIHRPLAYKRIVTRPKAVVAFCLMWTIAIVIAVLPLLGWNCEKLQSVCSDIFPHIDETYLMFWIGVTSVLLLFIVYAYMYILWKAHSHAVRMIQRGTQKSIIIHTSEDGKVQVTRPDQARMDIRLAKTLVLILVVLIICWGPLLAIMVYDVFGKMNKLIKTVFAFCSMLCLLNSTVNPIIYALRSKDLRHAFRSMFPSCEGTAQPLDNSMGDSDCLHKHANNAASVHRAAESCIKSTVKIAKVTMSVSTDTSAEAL

In the case of `CCOC(=O)c1cc(NC(=O)N(c2ccccc2)c2ccccc2)c2c(Cl)cc(Cl)cc2n1` [DCUK-OEt, N,N-diphenyl-4-ureido-5,7-dichloro-2-carboxy quinoline ethyl ester], the “time at which plasma level fell to low levels” value in data set [1] is given as “about 2 hours”. In data set [1] (analyte = label), the “time of peak brain level” value was “about 1 hour” and the “time of peak plasma level” value is recorded as “about 1 hour”. Moreover, in data set [2], the negative logarithm of the Ki (pKi) is 5.13.

As for `O=C(O)c1cc(NC(=O)N(c2ccccc2)c2ccccc2)c2c(Cl)cc(Cl)cc2n1` [DCUKA, N,N-diphenyl-4-ureido-5,7-dichloro-2-carboxyquinoline], in data set [1] (analyte = label), the “time of peak plasma level” value is “about 2 hour”. Also, in data set [1] (analyte DCUKA), the “brain level at about 8 hours post-administration” value is listed as “still elevated”. Further, in data set [2], the pKi is below 5.00.
